Data published in ChEMBL document CHEMBL3885861, “Open TG-GATES”.

Organism: Rattus norvegicus
Assay: Open TG-GATES - Regimen: Daily Repeat
Assay type: toxicity, organism-based, Sprague-Dawley
Parameters: regimen Daily Repeat, gender Male, age 6 weeks
Conditions: in vivo, po, 0 mg/kg, route gavage, dose level Control; for APTT / Bas / Eos / Fbg / Hb / Ht / Lym / MCH / MCHC / MCV / Mono / Neu / PT / Plat / RBC / Ret / WBC: tissue Blood; for KIDNEY_L / KIDNEY_R / KIDNEY_TOTAL: tissue Kidney; for LIVER: tissue Liver; for A/G / ALP / ALT / AST / BUN / CRE / Ca / Cl / DBIL / GLC / IP / K / LDH / Na / PL / RALB / TBIL / TC / TG / TP / gamma-GTP: tissue Plasma

Compound `CCOc1ccc(NC(=O)CC(C)O)cc1` (configuration not stated) [BUCETIN] has a TERMINAL_BW (72 h, time 3 day) of 249.6 g, an APTT (72 h, time 3 day) of 17.8 s and a Bas (72 h, time 3 day) of 0%. The Eos (72 h, time 3 day) was 1%, the Fbg (72 h, time 3 day) was 305.2 mg/dL and the Hb (72 h, time 3 day) was 13.4 g/dL. It also gave a Ht (72 h, time 3 day) of 40.2%, a Lym (72 h, time 3 day) of 73.4% and an MCH (72 h, time 3 day) of 21.3 pg. For the same compound, the MCHC (72 h, time 3 day) was 33.3%, the MCV (72 h, time 3 day) was 64.1 fL and the Mono (72 h, time 3 day) was 3%. It also gave a Neu (72 h, time 3 day) of 22%, a PT (72 h, time 3 day) of 14 s and a Plat (72 h, time 3 day) of 120.3 x10_4/uL. For the same compound, the RBC (72 h, time 3 day) was 627 x10_4/ul, the Ret (72 h, time 3 day) was 7.2% and the WBC (72 h, time 3 day) was 91.6 x10_2/uL. It also gave a KIDNEY_L (72 h, time 3 day) of 1.1 g, a KIDNEY_R (72 h, time 3 day) of 1.1 g and a KIDNEY_TOTAL (72 h, time 3 day) of 2.1 g. It also gave an LIVER (72 h, time 3 day) of 11.9 g, an A/G (72 h, time 3 day) of 0.8 and an ALP (72 h, time 3 day) of 1726.4 IU/L. For the same compound, the ALT (72 h, time 3 day) was 33.8 IU/L, the AST (72 h, time 3 day) was 66.8 IU/L and the BUN (72 h, time 3 day) was 14.8 mg/dL. The CRE (72 h, time 3 day) was 0.2 mg/dL, the Ca (72 h, time 3 day) was 11 mg/dL and the Cl (72 h, time 3 day) was 105.4 meq/L. The DBIL (72 h, time 3 day) was 0.02 mg/dL, the GLC (72 h, time 3 day) was 179 mg/dL and the IP (72 h, time 3 day) was 7.5 mg/dL. For the same compound, the K (72 h, time 3 day) was 4.1 meq/L, the LDH (72 h, time 3 day) was 67.2 IU/L and the Na (72 h, time 3 day) was 144 meq/L. For the same compound, the PL (72 h, time 3 day) was 165.2 mg/dL, the RALB (72 h, time 3 day) was 2.7 g/dL and the TBIL (72 h, time 3 day) was 0.048 mg/dL. For the same compound, the TC (72 h, time 3 day) was 82.4 mg/dL, the TG (72 h, time 3 day) was 104.6 mg/dL and the TP (72 h, time 3 day) was 5.9 g/dL. It also gave a gamma-GTP (72 h, time 3 day) of 1.2 IU/L, a TERMINAL_BW ([…], time 7 day) of 287 g and a TERMINAL_BW ([…], time 14 day) of 375 g. It also gave a TERMINAL_BW ([…], time 28 day) of 420.9 g, an APTT ([…], time 7 day) of 16.5 s and a Bas ([…], time 7 day) of 0%. It also gave an Eos ([…], time 7 day) of 1.2%, a Fbg ([…], time 7 day) of 262.4 mg/dL and a Hb ([…], time 7 day) of 13.5 g/dL. It also gave a Ht ([…], time 7 day) of 40%, a Lym ([…], time 7 day) of 81.2% and an MCH ([…], time 7 day) of 20.7 pg. For the same compound, the MCHC ([…], time 7 day) was 33.7%, the MCV ([…], time 7 day) was 61.5 fL and the Mono ([…], time 7 day) was 2.6%. It also gave a Neu ([…], time 7 day) of 14.4%, a PT ([…], time 7 day) of 13.9 s and a Plat ([…], time 7 day) of 112.2 x10_4/uL. It also gave an RBC ([…], time 7 day) of 651 x10_4/ul, a Ret ([…], time 7 day) of 6.3% and a WBC ([…], time 7 day) of 93.2 x10_2/uL. It also gave an APTT ([…], time 14 day) of 17.7 s, a Bas ([…], time 14 day) of 0.2% and an Eos ([…], time 14 day) of 1%. It also gave a Fbg ([…], time 14 day) of 321.4 mg/dL, a Hb ([…], time 14 day) of 14 g/dL and a Ht ([…], time 14 day) of 41.7%. The Lym ([…], time 14 day) was 75.8%, the MCH ([…], time 14 day) was 20.2 pg and the MCHC ([…], time 14 day) was 33.6%. It also gave an MCV ([…], time 14 day) of 60.2 fL, a Mono ([…], time 14 day) of 2.4% and a Neu ([…], time 14 day) of 20.4%. For the same compound, the PT ([…], time 14 day) was 13.8 s, the Plat ([…], time 14 day) was 127.4 x10_4/uL and the RBC ([…], time 14 day) was 694 x10_4/ul. The Ret ([…], time 14 day) was 4.6%, the WBC ([…], time 14 day) was 121.6 x10_2/uL and the APTT ([…], time 28 day) was 18.6 s. For the same compound, the Bas ([…], time 28 day) was 0.2%, the Eos ([…], time 28 day) was 1.2% and the Fbg ([…], time 28 day) was 296.4 mg/dL. It also gave a Hb ([…], time 28 day) of 15.3 g/dL, a Ht ([…], time 28 day) of 44% and a Lym ([…], time 28 day) of 79.4%. It also gave an MCH ([…], time 28 day) of 19.7 pg, an MCHC ([…], time 28 day) of 34.9% and an MCV ([…], time 28 day) of 56.5 fL. The Mono ([…], time 28 day) was 2.2%, the Neu ([…], time 28 day) was 16.6% and the PT ([…], time 28 day) was 13.9 s. The Plat ([…], time 28 day) was 99.2 x10_4/uL, the RBC ([…], time 28 day) was 778.4 x10_4/ul and the Ret ([…], time 28 day) was 2.7%. It also gave a WBC ([…], time 28 day) of 100.2 x10_2/uL, a KIDNEY_L ([…], time 7 day) of 1.2 g and a KIDNEY_R ([…], time 7 day) of 1.1 g. It also gave a KIDNEY_TOTAL ([…], time 7 day) of 2.3 g, a KIDNEY_L ([…], time 14 day) of 1.5 g and a KIDNEY_R ([…], time 14 day) of 1.3 g. It also gave a KIDNEY_TOTAL ([…], time 14 day) of 2.8 g, a KIDNEY_L ([…], time 28 day) of 1.4 g and a KIDNEY_R ([…], time 28 day) of 1.4 g. The KIDNEY_TOTAL ([…], time 28 day) was 2.9 g, the LIVER ([…], time 7 day) was 13.2 g and the LIVER ([…], time 14 day) was 17.3 g. For the same compound, the LIVER ([…], time 28 day) was 16.3 g, the A/G ([…], time 7 day) was 0.8 and the ALP ([…], time 7 day) was 1795.8 IU/L. For the same compound, the ALT ([…], time 7 day) was 32.2 IU/L, the AST ([…], time 7 day) was 65.6 IU/L and the BUN ([…], time 7 day) was 15.4 mg/dL. It also gave a CRE ([…], time 7 day) of 0.2 mg/dL, a Ca ([…], time 7 day) of 11 mg/dL and a Cl ([…], time 7 day) of 105.2 meq/L. For the same compound, the DBIL ([…], time 7 day) was 0.018 mg/dL, the GLC ([…], time 7 day) was 185 mg/dL and the IP ([…], time 7 day) was 7.3 mg/dL. For the same compound, the K ([…], time 7 day) was 4 meq/L, the LDH ([…], time 7 day) was 95.2 IU/L and the Na ([…], time 7 day) was 142.6 meq/L. The PL ([…], time 7 day) was 166.6 mg/dL, the RALB ([…], time 7 day) was 2.6 g/dL and the TBIL ([…], time 7 day) was 0.038 mg/dL. The TC ([…], time 7 day) was 77.8 mg/dL, the TG ([…], time 7 day) was 144 mg/dL and the TP ([…], time 7 day) was 5.8 g/dL. The gamma-GTP ([…], time 7 day) was 1 IU/L, the A/G ([…], time 14 day) was 0.8 and the ALP ([…], time 14 day) was 1354.4 IU/L. The ALT ([…], time 14 day) was 33 IU/L, the AST ([…], time 14 day) was 60.8 IU/L and the BUN ([…], time 14 day) was 16 mg/dL. For the same compound, the CRE ([…], time 14 day) was 0.2 mg/dL, the Ca ([…], time 14 day) was 11.1 mg/dL and the Cl ([…], time 14 day) was 104.4 meq/L. It also gave a DBIL ([…], time 14 day) of 0.02 mg/dL, a GLC ([…], time 14 day) of 188.8 mg/dL and an IP ([…], time 14 day) of 7.4 mg/dL. For the same compound, the K ([…], time 14 day) was 3.9 meq/L, the LDH ([…], time 14 day) was 97.4 IU/L and the Na ([…], time 14 day) was 144.8 meq/L. It also gave a PL ([…], time 14 day) of 170.2 mg/dL, an RALB ([…], time 14 day) of 2.8 g/dL and a TBIL ([…], time 14 day) of 0.05 mg/dL. For the same compound, the TC ([…], time 14 day) was 81 mg/dL, the TG ([…], time 14 day) was 160.8 mg/dL and the TP ([…], time 14 day) was 6.3 g/dL. The gamma-GTP ([…], time 14 day) was 1.2 IU/L, the A/G ([…], time 28 day) was 0.8 and the ALP ([…], time 28 day) was 1201 IU/L. It also gave an ALT ([…], time 28 day) of 30.8 IU/L, an AST ([…], time 28 day) of 62.4 IU/L and a BUN ([…], time 28 day) of 15.2 mg/dL. It also gave a CRE ([…], time 28 day) of 0.3 mg/dL, a Ca ([…], time 28 day) of 11 mg/dL and a Cl ([…], time 28 day) of 105.8 meq/L. The DBIL ([…], time 28 day) was 0.022 mg/dL, the GLC ([…], time 28 day) was 188.6 mg/dL and the IP ([…], time 28 day) was 5.8 mg/dL. It also gave a K ([…], time 28 day) of 3.9 meq/L, an LDH ([…], time 28 day) of 69.6 IU/L and a Na ([…], time 28 day) of 145.4 meq/L. It also gave a PL ([…], time 28 day) of 146.2 mg/dL, an RALB ([…], time 28 day) of 2.8 g/dL and a TBIL ([…], time 28 day) of 0.058 mg/dL. The TC ([…], time 28 day) was 65.4 mg/dL, the TG ([…], time 28 day) was 155.6 mg/dL and the TP ([…], time 28 day) was 6.3 g/dL. The gamma-GTP ([…], time 28 day) was 2 IU/L.
